# Test results taken from US20240115549A1, “TREATMENT OF MENTAL DISORDERS” (GH Research Ireland Limited, priority 2022, published 2024).
# Several values for one entry are separate records, joined by “and”; a condition that tells them apart may be missing. Equal entries are not always repeated. Entries after “also recorded” stand apart in the source; their conditions may differ.
# Test system: patients with postpartum depression (PPD)
# Experiment: Clinical trial of inhaled 5-MeO-DMT in patients with postpartum depression
# Type: in vivo, human
# Details: individual PPD patient
# Description: The single-arm, open-label clinical trial will involve 15 adult female patients with clinically diagnosed postpartum depression (PPD).
# The second dose (12 mg) will only be administered if: • a. A peak experience (total score of 275) has not been achieved following the 6 mg dose, and • b. The 6 mg dose was safe and well-tolerated according to the investigator, • c. Any psychoactive effects (PsE) of the prior dose have subsided, and • d. Pre-dose vital parameters and forced expiratory volume in one second (FEV1) are in normal range, or if outside of the normal range, are not clinically significant according to the investigator. • 3. Similarly, a third dose (18 mg) will only be administered if: • a. A peak experience (total score of 275) has not been achieved following the 12 mg dose, and • b. The 12 mg dose was safe and well-tolerated according to the investigator, and • c. Any PsE of the prior dose have subsided, and • d. Pre-dose vital parameters and forced expiratory volume in one second (FEV1) are in normal range, or if outside of the normal range, are not clinically significant according to the investigator.
# The patients will be assessed for a peak psychedelic experience (based on a patient-scored visual analogue scale, the PE scale), sedation, and other endpoints after dosing. Follow-up visits are planned for Day 1, and Day 7 after the dosing day.
# The following criteria must be met by all patients considered for clinical trial participation: • 1. Is female and in the age range between 18 and 45 years (inclusive) at screening. • 2. Has a body mass index (BMI) in the range of 18.5 and 35 kg/m^2 (inclusive) at screening. • 3. Meets the trial criteria for PPD as assessed by a trial psychiatrist or registered psychologist: • a. Diagnosis of Major Depressive Disorder without psychotic features, confirmed by the Mini-International Neuropsychiatric Interview (MINI), with peri-partum onset that began no earlier than gestation and no later than the first 4 weeks postpartum. • b. Has a Montgomery-Åsberg Depression Rating Scale (MADRS) total score of equal to or greater than 28 at screening and pre-dose on Day 0. • 6. […] Patients must have a negative pregnancy test at screening and on the pre-test day (Day −1). • 5. Is willing to delay start of other antidepressant or anxiety medication until after the end of the trial at Day 7 and agrees to keep any psychotherapy unchanged during the trial.
# A potential patient who meets any of the following key exclusion criteria will be excluded from participation in this trial: • 1. Has, based on history, psychiatric assessment, and evaluation of the MINI, a current or prior diagnosis of bipolar disorder, a manic or hypomanic episode, a psychotic disorder, Major Depressive Disorder (MDD) or other mood disorder with psychotic features, obsessive compulsive disorder, post-traumatic stress disorder (PTSD), autism spectrum disorder, borderline personality disorder, schizophrenia, delusional disorder, paranoid personality disorder, schizoaffective disorder, clinically significant intellectual disability, or any other psychiatric comorbidity that renders the patient unsuitable for the trial according to the investigator's judgment. • 2. Has one or more first or second degree relatives with a current or previously diagnosed bipolar disorder, psychotic disorder or other mood disorder (including MDD) with psychotic features. • 3. Is in the judgement of a trial psychiatrist or registered psychologist, at significant risk for suicide based on history, psychiatric assessment, and evaluation of suicidal ideation and suicidal behaviour based on the Columbia-Suicide Severity Rating Scale (C-SSRS). • 4. Has taken anti-depressive medication within 14 days or 5 half-lives (whichever is longer) prior to dosing (exception: within the last 5 weeks in the case of fluoxetine). • 5.
compound,measurement,setting,value
COc1ccc2[nH]cc(CCN(C)C)c2c1 [5-MeO-DMT],Reported adverse events,,"mild, short-lasting and resolved spontaneously"
same,Standard criteria for MADRS response (>=50% improvement) and remission (total <=10),,fulfilled
same,Tolerability of inhalation procedure / regimen,6 mg then 12 mg,well tolerated with no inhalation-related adverse events; also recorded: well tolerated
same,MADRS apparent sadness improvement,2 h,5 and 4
same,MADRS apparent sadness score,2 h,0
same,MADRS concentration difficulties improvement,2 h,0 and 4
same,MADRS concentration difficulties score,2 h,0
same,MADRS inability to feel improvement,2 h,3 and 4
same,MADRS inability to feel score,2 h,0
same,MADRS inner tension improvement,2 h,5 and 4
same,MADRS inner tension score,2 h,0
same,MADRS lassitude improvement,2 h,3 and 4
same,MADRS lassitude score,2 h,0
same,MADRS pessimistic thoughts improvement,2 h,4
same,MADRS pessimistic thoughts score,2 h,0
same,MADRS reduced appetite improvement,2 h,0 and 6
same,MADRS reduced appetite score,2 h,0
same,MADRS reduced sleep improvement,2 h,0
same,MADRS reported sadness improvement,2 h,4 and 5
same,MADRS reported sadness score,2 h,0
same,MADRS suicidal thoughts improvement,2 h,0 and 1
same,MADRS suicidal thoughts score,2 h,0
same,MADRS reduced sleep score,2 h (baseline carried forward),5
same,BPRS anxiety improvement,Day 1,6 and 5
same,BPRS anxiety score,Day 1,1
same,BPRS blunted affect improvement,Day 1,0 and 4
same,BPRS blunted affect score,Day 1,1
same,BPRS conceptual disorganization improvement,Day 1,0 and 3
same,BPRS conceptual disorganization score,Day 1,1
same,BPRS depressive mood improvement,Day 1,5 and 4
same,BPRS depressive mood score,Day 1,1
same,BPRS disorientation improvement,Day 1,0
same,BPRS disorientation score,Day 1,1
same,BPRS emotional withdrawal improvement,Day 1,4 and 5
same,BPRS emotional withdrawal score,Day 1,1
same,BPRS excitement improvement,Day 1,1 and 0
same,BPRS excitement score,Day 1,1
same,BPRS grandiosity improvement,Day 1,0
same,BPRS grandiosity score,Day 1,1
same,BPRS guilt feelings improvement,Day 1,5
same,BPRS guilt feelings score,Day 1,1
same,BPRS hallucinatory behaviour improvement,Day 1,0
same,BPRS hallucinatory behaviour score,Day 1,1
same,BPRS hostility improvement,Day 1,0 and 3
same,BPRS hostility score,Day 1,1
same,BPRS mannerisms and posturing improvement,Day 1,0
same,BPRS mannerisms and posturing score,Day 1,1
same,BPRS motor retardation improvement,Day 1,0 and 2
same,BPRS motor retardation score,Day 1,1
same,BPRS somatic concern improvement,Day 1,5 and 0
same,BPRS somatic concern score,Day 1,1
same,BPRS suspiciousness improvement,Day 1,0
same,BPRS suspiciousness score,Day 1,1
same,BPRS tension improvement,Day 1,5 and 3
same,BPRS tension score,Day 1,1
same,BPRS uncooperativeness improvement,Day 1,0
same,BPRS uncooperativeness score,Day 1,1
same,BPRS unusual thought content improvement,Day 1,0
same,BPRS unusual thought content score,Day 1,1
same,MADRS apparent sadness improvement,Day 1,5 and 4
same,MADRS apparent sadness score,Day 1,0
same,MADRS concentration difficulties improvement,Day 1,0 and 4
same,MADRS concentration difficulties score,Day 1,0
same,MADRS inability to feel improvement,Day 1,3 and 4
same,MADRS inability to feel score,Day 1,0
same,MADRS inner tension improvement,Day 1,5 and 4
same,MADRS inner tension score,Day 1,0
same,MADRS lassitude improvement,Day 1,3 and 4
same,MADRS lassitude score,Day 1,0
same,MADRS pessimistic thoughts improvement,Day 1,4
same,MADRS pessimistic thoughts score,Day 1,0
same,MADRS reduced appetite improvement,Day 1,0 and 6
same,MADRS reduced appetite score,Day 1,0
same,MADRS reduced sleep improvement,Day 1,5
same,MADRS reduced sleep score,Day 1,0
same,MADRS reported sadness improvement,Day 1,4 and 5
same,MADRS reported sadness score,Day 1,0
same,MADRS suicidal thoughts improvement,Day 1,0 and 1
same,MADRS suicidal thoughts score,Day 1,0
same,BIMF TOTAL score,Day 7,105 and 104
same,BIMF item 1 (I am a good mother) score,Day 7,6 and 5
same,BIMF item 2 (I feel rested) score,Day 7,2 and 4
same,BIMF item 3 (comfortable with the way I've chosen to feed my baby) score,Day 7,6
same,BIMF item 4 (My baby and I understand each other) score,Day 7,5 and 6
same,BIMF item 5 (able to relax and enjoy time with my baby) score,Day 7,6
same,BIMF item 6 (people I can trust to care for my baby when I need a break) score,Day 7,6 and 5
same,BIMF item 8 (getting enough adult interaction) score,Day 7,6 and 4
same,BIMF item 9 (getting enough encouragement from other people) score,Day 7,6 and 5
same,BIMF item 10 (I trust my own feelings (instincts)) score,Day 7,6
same,BIMF item 11 (a little time each week to do something for myself) score,Day 7,6 and 4
same,BIMF item 12 (taking good care of my baby's physical needs) score,Day 7,6
same,BIMF item 13 (taking good care of my physical needs) score,Day 7,5
same,BIMF item 14 (good decisions about my baby's health and well being) score,Day 7,6
same,BIMF item 15 (My baby and I are getting into a routine) score,Day 7,6 and 5
same,BIMF item 16 (I worry about how other people judge me) score,Day 7,5
same,BIMF item 17 (able to take care of my baby and my other responsibilities) score,Day 7,5
same,BIMF item 18 (Anxiety or worry often interferes with my mothering ability) score,Day 7,5
same,BIMF item 19 (getting better at taking care of my baby) score,Day 7,1 and 6
same,BIMF item 20 (satisfied with the job I am doing as a new mother) score,Day 7,5
same,"BIMF total score improvement, percent",Day 7,14% and over 40%
same,BPRS anxiety improvement,Day 7,6 and 5
same,BPRS anxiety score,Day 7,1
same,BPRS blunted affect improvement,Day 7,0 and 4
same,BPRS blunted affect score,Day 7,1
same,BPRS conceptual disorganization improvement,Day 7,0 and 3
same,BPRS conceptual disorganization score,Day 7,1
same,BPRS depressive mood improvement,Day 7,5 and 4
same,BPRS depressive mood score,Day 7,1
same,BPRS disorientation improvement,Day 7,0
same,BPRS disorientation score,Day 7,1
same,BPRS emotional withdrawal improvement,Day 7,4 and 5
same,BPRS emotional withdrawal score,Day 7,1
same,BPRS excitement improvement,Day 7,1 and 0
same,BPRS excitement score,Day 7,1
same,BPRS grandiosity improvement,Day 7,0
same,BPRS grandiosity score,Day 7,1
same,BPRS guilt feelings improvement,Day 7,5
same,BPRS guilt feelings score,Day 7,1
same,BPRS hallucinatory behaviour improvement,Day 7,0
same,BPRS hallucinatory behaviour score,Day 7,1
same,BPRS hostility improvement,Day 7,0 and 3
same,BPRS hostility score,Day 7,1
same,BPRS mannerisms and posturing improvement,Day 7,0
same,BPRS mannerisms and posturing score,Day 7,1
same,BPRS motor retardation improvement,Day 7,0 and 2
same,BPRS motor retardation score,Day 7,1
same,BPRS somatic concern improvement,Day 7,5 and 0
same,BPRS somatic concern score,Day 7,1
same,BPRS suspiciousness improvement,Day 7,0
same,BPRS suspiciousness score,Day 7,1
same,BPRS tension improvement,Day 7,5 and 3
same,BPRS tension score,Day 7,1
same,BPRS uncooperativeness improvement,Day 7,0
same,BPRS uncooperativeness score,Day 7,1
same,BPRS unusual thought content improvement,Day 7,0
same,BPRS unusual thought content score,Day 7,1
same,MADRS apparent sadness improvement,Day 7,5 and 4
same,MADRS apparent sadness score,Day 7,0
same,MADRS concentration difficulties improvement,Day 7,0 and 4
same,MADRS concentration difficulties score,Day 7,0
same,MADRS inability to feel improvement,Day 7,3 and 4
same,MADRS inability to feel score,Day 7,0
same,MADRS inner tension improvement,Day 7,4
same,MADRS inner tension score,Day 7,1 and 0
same,MADRS lassitude improvement,Day 7,3 and 4
same,MADRS lassitude score,Day 7,0
same,MADRS pessimistic thoughts improvement,Day 7,4
same,MADRS pessimistic thoughts score,Day 7,0
same,MADRS reduced appetite improvement,Day 7,0 and 6
same,MADRS reduced appetite score,Day 7,0
same,MADRS reduced sleep improvement,Day 7,5
same,MADRS reduced sleep score,Day 7,0
same,MADRS reported sadness improvement,Day 7,4 and 5
same,MADRS reported sadness score,Day 7,0
same,MADRS suicidal thoughts improvement,Day 7,0 and 1
same,MADRS suicidal thoughts score,Day 7,0
same,Total MADRS improvement,Day 7,41
same,Total MADRS score,Day 7,0
same,BIMF TOTAL Δ,Day 7 vs Day 0,13 and 45
same,BIMF domain Adjustment Δ,Day 7 vs Day 0,1 and 9
same,BIMF domain Infant Care Δ,Day 7 vs Day 0,0
same,BIMF domain Management Δ,Day 7 vs Day 0,5 and 13
same,BIMF domain Mother-Child Interaction Δ,Day 7 vs Day 0,2 and 7
same,BIMF domain Psychological Well-being Δ,Day 7 vs Day 0,9 and 27
same,BIMF domain Self-Care Δ,Day 7 vs Day 0,4 and 10
same,BIMF domain Social Support % Improvement,Day 7 vs Day 0,approx. 27% and 27%
same,BIMF domain Social Support Δ,Day 7 vs Day 0,1 and 3
same,BIMF item 1 (I am a good mother) Δ,Day 7 vs Day 0,0 and 1
same,BIMF item 2 (I feel rested) Δ,Day 7 vs Day 0,2 and 4
same,BIMF item 3 (comfortable with the way I've chosen to feed my baby) Δ,Day 7 vs Day 0,0 and 1
same,BIMF item 4 (My baby and I understand each other) Δ,Day 7 vs Day 0,0 and 1
same,BIMF item 5 (able to relax and enjoy time with my baby) Δ,Day 7 vs Day 0,1 and 5
same,BIMF item 6 (people I can trust to care for my baby when I need a break) Δ,Day 7 vs Day 0,0
same,BIMF item 8 (getting enough adult interaction) Δ,Day 7 vs Day 0,0 and 1
same,BIMF item 9 (getting enough encouragement from other people) Δ,Day 7 vs Day 0,1 and 2
same,BIMF item 10 (I trust my own feelings (instincts)) Δ,Day 7 vs Day 0,1 and 2
same,BIMF item 11 (a little time each week to do something for myself) Δ,Day 7 vs Day 0,1 and 2
same,BIMF item 12 (taking good care of my baby's physical needs) Δ,Day 7 vs Day 0,0
same,BIMF item 13 (taking good care of my physical needs) Δ,Day 7 vs Day 0,1 and 4
same,BIMF item 14 (good decisions about my baby's health and well being) Δ,Day 7 vs Day 0,0
same,BIMF item 15 (My baby and I are getting into a routine) Δ,Day 7 vs Day 0,1
same,BIMF item 16 (I worry about how other people judge me) Δ,Day 7 vs Day 0,2 and 4
same,BIMF item 17 (able to take care of my baby and my other responsibilities) Δ,Day 7 vs Day 0,0 and 3
same,BIMF item 18 (Anxiety or worry often interferes with my mothering ability) Δ,Day 7 vs Day 0,3 and 5
same,BIMF item 19 (getting better at taking care of my baby) Δ,Day 7 vs Day 0,1 and 6
same,BIMF item 20 (satisfied with the job I am doing as a new mother) Δ,Day 7 vs Day 0,−1 and 4
same,BPRS anxiety improvement,discharge,6 and 5
same,BPRS anxiety score,discharge,1
same,BPRS blunted affect improvement,discharge,0 and 4
same,BPRS blunted affect score,discharge,1
same,BPRS conceptual disorganization improvement,discharge,0 and 3
same,BPRS conceptual disorganization score,discharge,1
same,BPRS depressive mood improvement,discharge,5 and 4
same,BPRS depressive mood score,discharge,1
same,BPRS disorientation improvement,discharge,0
same,BPRS disorientation score,discharge,1
same,BPRS emotional withdrawal improvement,discharge,4 and 5
same,BPRS emotional withdrawal score,discharge,1
same,BPRS excitement improvement,discharge,1 and 0
same,BPRS excitement score,discharge,1
same,BPRS grandiosity improvement,discharge,0
same,BPRS grandiosity score,discharge,1
same,BPRS guilt feelings improvement,discharge,5
same,BPRS guilt feelings score,discharge,1
same,BPRS hallucinatory behaviour improvement,discharge,0
same,BPRS hallucinatory behaviour score,discharge,1
same,BPRS hostility improvement,discharge,0 and 3
same,BPRS hostility score,discharge,1
same,BPRS mannerisms and posturing improvement,discharge,0
same,BPRS mannerisms and posturing score,discharge,1
same,BPRS motor retardation improvement,discharge,0 and 2
same,BPRS motor retardation score,discharge,1
same,BPRS somatic concern improvement,discharge,5 and 0
same,BPRS somatic concern score,discharge,1
same,BPRS suspiciousness improvement,discharge,0
same,BPRS suspiciousness score,discharge,1
same,BPRS tension improvement,discharge,3
same,BPRS tension score,discharge,1
same,BPRS uncooperativeness improvement,discharge,0
same,BPRS uncooperativeness score,discharge,1
same,BPRS unusual thought content improvement,discharge,0
same,BPRS unusual thought content score,discharge,1
